Laboratory results taken from US9187472B2 (AbbVie Inc., priority 2012, dated 2015).

Each compound was assayed on PC3 cells (assay: NAMPT Cell Proliferation Assay). Details: Homo sapiens, PC-3, 120 h, 5 days incubation, cell viability by Cell Titer Glo.
Format: cell-based
Outline: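 Seed PC3 at 500 cells/well (RPMI, 10% HI-FBS), attach overnight; add compound, 10-fold series 10 μM → 1×10^−5 μM; incubate 5 d, 37° C/5% CO2; luminescent viability readout; fit % inhibition sigmoidally for IC50.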

Question: Which IC50 does the source give for `O=C(NCc1ccn2ccnc2c1)Nc1ccc(C2CCN(C(=O)c3cccc4ccncc34)CC2)cc1` [Example 1049, 1-(imidazo[1,2-a]pyridin-7-ylmethyl)-3-{4-[1-(isoquinolin-8-ylcarbonyl)piperidin-4-yl]phenyl}urea] here?
Answer: 2.39 nM

Question: Which IC50 does the source give for `N#Cc1ccc(CC(=O)N2CCC(c3ccc(NC(=O)NCc4ccn5ccnc5c4)cc3)CC2)cc1` [Example 1050, 1-(4-{1-[(4-cyanophenyl)acetyl]piperidin-4-yl}phenyl)-3-(imidazo[1,2-a]pyridin-7-ylmethyl)urea] here?
Answer: 23.4 nM

Question: Which IC50 does the source give for `COc1ccsc1C(=O)N1CCC(c2ccc(NC(=O)NCc3ccn4ccnc4c3)cc2)CC1` [Example 1051, 1-(imidazo[1,2-a]pyridin-7-ylmethyl)-3-(4-{1-[(3-methoxythiophen-2-yl)carbonyl]piperidin-4-yl}phenyl)urea] here?
Answer: 0.313 nM

Question: For `N#Cc1cc(C(=O)N2CCC(c3ccc(NC(=O)NCc4ccn5ccnc5c4)cc3)CC2)ccc1F` [Example 1052, 1-{4-[1-(3-cyano-4-fluorobenzoyl)piperidin-4-yl]phenyl}-3-(imidazo[1,2-a]pyridin-7-ylmethyl)urea], which IC50 is on record?
Answer: 27.1 nM

Question: How did the IC50 turn out when `O=C(NCc1ccn2ccnc2c1)Nc1ccc(C2CCN(C(=O)c3nc4c(s3)CCCC4)CC2)cc1` [Example 1053, 1-(imidazo[1,2-a]pyridin-7-ylmethyl)-3-{4-[1-(4,5,6,7-tetrahydro-1,3-benzothiazol-2-ylcarbonyl)piperidin-4-yl]phenyl}urea] was run?
Answer: 3.41 nM

Question: With `O=C(NCc1ccn2ccnc2c1)Nc1ccc(C2CCN(C(=O)c3nc4ccccc4s3)CC2)cc1` [Example 1054, 1-{4-[1-(1,3-benzothiazol-2-ylcarbonyl)piperidin-4-yl]phenyl}-3-(imidazo[1,2-a]pyridin-7-ylmethyl)urea] as the compound, how does the IC50 read?
Answer: 26 nM

Question: For `CCc1cc(C(=O)N2CCC(c3ccc(NC(=O)NCc4ccn5ccnc5c4)cc3)CC2)on1` [Example 1055, 1-(4-{1-[(3-ethyl-1,2-oxazol-5-yl)carbonyl]piperidin-4-yl}phenyl)-3-(imidazo[1,2-a]pyridin-7-ylmethyl)urea], which IC50 is on record?
Answer: 4.38 nM

Question: For `C=CCn1nc(C)cc1C(=O)N1CCC(c2ccc(NC(=O)NCc3ccn4ccnc4c3)cc2)CC1` [Example 1056, 1-(imidazo[1,2-a]pyridin-7-ylmethyl)-3-[4-(1-{[3-methyl-1-(prop-2-en-1-yl)-1H-pyrazol-5-yl]carbonyl}piperidin-4-yl)phenyl]urea], which IC50 is on record?
Answer: 1.3 nM

Question: Which IC50 does the source give for `O=C(NCc1ccn2ccnc2c1)Nc1ccc(C2CCN(C(=O)c3ccc4snnc4c3)CC2)cc1` [Example 1057, 1-{4-[1-(1,2,3-benzothiadiazol-5-ylcarbonyl)piperidin-4-yl]phenyl}-3-(imidazo[1,2-a]pyridin-7-ylmethyl)urea] here?
Answer: 25.8 nM

Question: With `CCc1nc(C(=O)N2CCC(c3ccc(NC(=O)NCc4ccn5ccnc5c4)cc3)CC2)cs1` [Example 1058, 1-(4-{1-[(2-ethyl-1,3-thiazol-4-yl)carbonyl]piperidin-4-yl}phenyl)-3-(imidazo[1,2-a]pyridin-7-ylmethyl)urea] as the compound, how does the IC50 read?
Answer: 2.49 nM

Question: `Cc1cc(C(=O)N2CCC(c3ccc(NC(=O)NCc4ccn5ccnc5c4)cc3)CC2)cnc1C` [Example 1059, 1-(4-{1-[(5,6-dimethylpyridin-3-yl)carbonyl]piperidin-4-yl}phenyl)-3-(imidazo[1,2-a]pyridin-7-ylmethyl)urea] was tested. Which IC50 did it give?
Answer: 16.4 nM

Question: How did the IC50 turn out when `O=C(NCc1ccn2ccnc2c1)Nc1ccc(C2CCN(C(=O)c3cccc4ncsc34)CC2)cc1` [Example 1060, 1-{4-[1-(1,3-benzothiazol-7-ylcarbonyl)piperidin-4-yl]phenyl}-3-(imidazo[1,2-a]pyridin-7-ylmethyl)urea] was run?
Answer: 2.29 nM

Question: How did the IC50 turn out when `O=C(NCc1ccn2ccnc2c1)c1ccc(C2CCN(C(=O)c3cc(Cl)ncc3F)CC2)cc1` [Example 1061, 4-{1-[(2-chloro-5-fluoropyridin-4-yl)carbonyl]piperidin-4-yl}-N-(imidazo[1,2-a]pyridin-7-ylmethyl)benzamide] was run?
Answer: 7.84 nM

Question: `O=C(NCc1ccn2ccnc2c1)c1ccc(C2CCN(C(=O)c3cc(C4CC4)no3)CC2)cc1` [Example 1062, 4-{1-[(3-cyclopropyl-1,2-oxazol-5-yl)carbonyl]piperidin-4-yl}-N-(imidazo[1,2-a]pyridin-7-ylmethyl)benzamide] was tested. Which IC50 did it give?
Answer: 17 nM

Question: How did the IC50 turn out when `COc1ccsc1C(=O)N1CCC(c2ccc(C(=O)NCc3ccn4ccnc4c3)cc2)CC1` [Example 1063, N-(imidazo[1,2-a]pyridin-7-ylmethyl)-4-{1-[(3-methoxythiophen-2-yl)carbonyl]piperidin-4-yl}benzamide] was run?
Answer: 1.89 nM

Question: Which IC50 does the source give for `Cc1oc(C(C)C)cc1C(=O)N1CCC(c2ccc(C(=O)NCc3ccn4ccnc4c3)cc2)CC1` [Example 1064, N-(imidazo[1,2-a]pyridin-7-ylmethyl)-4-(1-{[2-methyl-5-(propan-2-yl)furan-3-yl]carbonyl}piperidin-4-yl)benzamide] here?
Answer: 4.12 nM

Question: Which IC50 does the source give for `CC(Oc1cccc(F)c1)C(=O)N1CCC(c2ccc(NC(=O)NCc3ccn4ccnc4c3)cc2)CC1` (stereo not shown) [Example 1065, 1-(4-{1-[2-(3-fluorophenoxy)propanoyl]piperidin-4-yl}phenyl)-3-(imidazo[1,2-a]pyridin-7-ylmethyl)urea] here?
Answer: 1.43 nM

Question: With `O=C(NCc1ccn2ccnc2c1)Nc1ccc(C2CCN(C(=O)c3ncc(F)cc3F)CC2)cc1` [Example 1066, 1-(4-{1-[(3,5-difluoropyridin-2-yl)carbonyl]piperidin-4-yl}phenyl)-3-(imidazo[1,2-a]pyridin-7-ylmethyl)urea] as the compound, how does the IC50 read?
Answer: 5.7 nM

Question: Which IC50 does the source give for `CC(C)(C)OC(=O)N1CCC(c2ccc(NC(=O)Cc3ccn4ccnc4c3)c(F)c2)CC1` [Example 1067, tert-butyl 4-{3-fluoro-4-[(imidazo[1,2-a]pyridin-7-ylacetyl)amino]phenyl}piperidine-1-carboxylate] here?
Answer: 370 nM

Question: `O=C(NCc1ccn2ccnc2c1)c1ccc(C2CCN(C(=O)N3CCCCC3)CC2)cc1` [Example 1068, N-(imidazo[1,2-a]pyridin-7-ylmethyl)-4-[1-(piperidin-1-ylcarbonyl)piperidin-4-yl]benzamide] was tested. Which IC50 did it give?
Answer: 5.77 nM

Question: With `O=C(NCc1ccn2ccnc2c1)Nc1ccc(C2CCN(C(=O)c3ccccc3)CC2)cc1F` [Example 1069, 1-[4-(1-benzoylpiperidin-4-yl)-2-fluorophenyl]-3-(imidazo[1,2-a]pyridin-7-ylmethyl)urea] as the compound, how does the IC50 read?
Answer: 1.23 nM

Question: How did the IC50 turn out when `CC(C)(C)C(=O)N1CCC(c2ccc(NC(=O)NCc3ccn4ccnc4c3)c(F)c2)CC1` [Example 1070, 1-{4-[1-(2,2-dimethylpropanoyl)piperidin-4-yl]-2-fluorophenyl}-3-(imidazo[1,2-a]pyridin-7-ylmethyl)urea] was run?
Answer: 0.857 nM

Question: For `CC(C)(C)CC(=O)N1CCC(c2ccc(NC(=O)NCc3ccn4ccnc4c3)c(F)c2)CC1` [Example 1071, 1-{4-[1-(3,3-dimethylbutanoyl)piperidin-4-yl]-2-fluorophenyl}-3-(imidazo[1,2-a]pyridin-7-ylmethyl)urea], which IC50 is on record?
Answer: 0.473 nM

Question: How did the IC50 turn out when `CC(C)CCC(=O)N1CCC(c2ccc(NC(=O)NCc3ccn4ccnc4c3)c(F)c2)CC1` [Example 1072, 1-{2-fluoro-4-[1-(4-methylpentanoyl)piperidin-4-yl]phenyl}-3-(imidazo[1,2-a]pyridin-7-ylmethyl)urea] was run?
Answer: 6.24 nM

Question: For `CC[C@H](C)C(=O)N1CCC(c2ccc(NC(=O)NCc3ccn4ccnc4c3)c(F)c2)CC1` [Example 1073, 1-(2-fluoro-4-{1-[(2S)-2-methylbutanoyl]piperidin-4-yl}phenyl)-3-(imidazo[1,2-a]pyridin-7-ylmethyl)urea], which IC50 is on record?
Answer: 3.88 nM
